Measured values reported in patent US20230416207A1, “CRYSTALLINE FORMS OF QUINAZOLINONE COMPOUND AND PROCESS FOR PREPARING THE SAME” (priority 2020, published 2023).
In brackets after ≈: the same amount, converted by molar mass.

Experiments:
Format in all cases: physicochemical
[1] = Solubility of crystalline forms in simulated gastric fluid (SGF)
Source text: (§1) The UPLC data of the present disclosure were collected on Waters H Class, with photo-diode array detector. The UPLC parameters for purity and solubility test of the present disclosure were as follows: • 1. Column: Waters Xbridge C18, 150×4.6 mm, 5 μm • 2. Mobile phase: A: 0.05% trifluoroacetic acid in water; B: 0.05% trifluoroacetic acid in acetonitrile
Suspend Forms D, AL, and Z of the present disclosure and Form B in the prior art in simulated gastric fluid (SGF) to form suspensions, respectively. After equilibrium for 1 hour, 2 hours and 4 hours, filter the suspensions to form saturated solutions. Determine the concentration of API in corresponding saturated solution by HPLC.

[2] = Hygroscopicity study (DVS); conditions: for Water uptake at 80% RH: 25° C.; for Hygroscopicity: class per Chinese Pharmacopoeia 2010
Procedure: The dynamic vapor sorption diagrams of the present disclosure were collected on Intrinsic-type and Intrinsic Plus-type dynamic vapor sorption instruments of SMS company. The process parameters of the dynamic vapor sorption test of the present disclosure were as follows: • Temperature: 25° C. • Protection gas and its flow rate: N2, 200 mL/minute • dm/dt: 0.002%/minute • Minimum dm/dt equilibration time: 10 minutes • Maximum Equilibration Time: 180 minutes • Relative humidity range: 0% RH-95% RH-0% RH • Relative humidity gradient: 10% (0% RH-90% RH-0% RH), 5% (90% RH-95% RH and 95% RH-90% RH).
Weigh approximately 10 mg of Form Z of the present disclosure and Form B in the prior art for DVS test, and then collect the obtained solid for XRPD analysis. The results were summarized in Table 19, DVS plot of Form B was shown in FIG. 29, XRPD overlay of Form B was shown in FIG. 30, DVS plot of Form Z was shown in FIG. 31, and XRPD overlay of Form Z was shown in FIG. 32.
Description and definition of hygroscopicity (see appendix XIX J, guidance for hygroscopicity evaluation of Pharmacopoeia of the People's Republic of China 2010) • Deliquescent: sufficient water is absorbed to form a liquid, • Very hygroscopic: increase in mass is equal to or greater than 15 percent, • Hygroscopic: increase in mass is less than 15 percent and equal to or greater than 2 percent, • Slightly hygroscopic: increase in mass is less than 2 percent and equal to or greater than 0.2 percent. • Non-hygroscopic: increase in mass is less than 0.2 percent.

[3] = Solubility of crystalline forms in fasted-state simulated intestinal fluid (FaSSIF)
Source text: as §1
Suspend Forms D and Z of the present disclosure and Form B in the prior art in fasted-state simulated intestinal fluid (FaSSIF) to form suspensions, respectively. After equilibrium for 1 hour, 2 hours and 4 hours, filter the suspensions to form saturated solutions. Determine the concentration of API in corresponding saturated solution by HPLC.

[4] = Crystal habit study (PLM); conditions: for Crystal habit (PLM): dispersed in vacuum pump oil; for Powder flow property: inferred from PLM crystal habit
Procedure: The polarized light microscope photos of the present disclosure were taken at room temperature with a Zeiss microscope Axio Scope.A1 equipped with an Axiocam 305 color camera and 5×, 10×, 20× and 50× objective lenses.
Weigh about 10 mg of Forms Z and AL of the present disclosure onto a glass slide, respectively. Disperse each solid with several vacuum pump oil, and then cover with a cover glass. Observe the sample using PLM.

[5] = Particle size distribution study (laser particle size analyzer); conditions: for D10 / D50 / D90 / MV: wet method, Isopar G (0.2% lecithin), sonication 30 s
Procedure: The particle size distribution results of the present disclosure were collected on S3500-type laser particle size analyzer of the Microtrac company. The Microtrac S3500 was equipped with an SDC (Sample Delivery Controller) sampling system. The wet method was used in this test, using Isopar G (containing 0.2% lecithin) as the test dispersion medium. The process parameters of the laser particle size analyzer were as follows.
Approximately 10-30 mg of Form D of the present disclosure and Form B in the prior art were added into 5 mL Isopar G (0.2% lecithin) to form a suspension, respectively. The suspension was mixed well and then loaded into SDC loading system. Adjust the shading intensity to an appropriate range, and then started to collect data after sonication for 30 s. The results were summarized in Table 20, and the particle size distribution diagrams of Form D and Form B were shown in FIGS. 35 to 36, respectively.

SMILES | Solubility compared with Form B [1] | Solubility in SGF ([1]; equilibrium 1 hr) | Solubility in SGF ([1]; equilibrium 2 hr) | Solubility in SGF ([1]; equilibrium 4 hr) | Water uptake at 80% RH [2] | Hygroscopicity [2] | Solubility compared with Form B [3] | Solubility in FaSSIF ([3]; equilibrium 1 hr) | Solubility in FaSSIF ([3]; equilibrium 2 hr) | Crystal habit (PLM) [4] | Powder flow property [4] | D10 [5] | D50 [5] | D90 [5] | MV [5] | Solubility in FaSSIF ([3]; equilibrium 4 hr) | other results
CC(C)c1nc2cc(O)ccc2c(=O)n1-c1ccc(C#N)cc1 [Form Z, 4-(7-hydroxy-4-oxo-2-propan-2-ylquinazolin-3-yl) benzonitrile] | better solubility than Form B | 79.6 µg/mL (≈ 261 µM) | 90.7 µg/mL (≈ 297 µM) | 86.7 µg/mL (≈ 284 µM) | 0.0303 | Non-hygroscopic (increase in mass is less than 0.2 percent) | better solubility than Form B | 31.4 µg/mL (≈ 103 µM) | 42.7 µg/mL (≈ 140 µM) | regular particles | relatively good property on powder flow | – | – | – | – | – | Hygroscopicity compared with Form B [2]: relatively lower hygroscopicity than Form B; solubility at 4 h ([3]; fasted-state simulated intestinal fluid (FaSSIF), thermodynamic from solid, equilibrium 4 hr): 56.1 µg/mL (≈ 184 µM)
CC(C)c1nc2cc(O)ccc2c(=O)n1-c1ccc(C#N)cc1 [Form D, 4-(7-hydroxy-4-oxo-2-propan-2-ylquinazolin-3-yl) benzonitrile] | better solubility than Form B | 98.7 µg/mL (≈ 323 µM) | 95.4 µg/mL (≈ 312 µM) | 103.3 µg/mL (≈ 338 µM) | – | – | better solubility than Form B | – | 88.3 µg/mL (≈ 289 µM) | – | – | 53.9 μm | 117.2 μm | 175.9 μm | 116.2 μm | 87.1 µg/mL (≈ 285 µM) | Uniformity of particle size distribution compared with Form B [5]: more uniform particle size distribution than Form B
CC(C)c1nc2cc(O)ccc2c(=O)n1-c1ccc(C#N)cc1 [Form B, 4-(7-hydroxy-4-oxo-2-propan-2-ylquinazolin-3-yl) benzonitrile, reference compound] | – | 77.5 µg/mL (≈ 254 µM) | – | – | 0.2485 | Slightly hygroscopic (increase in mass is less than 2 percent and equal to or greater than 0.2 percent) | – | 33.3 µg/mL (≈ 109 µM) | 34.8 µg/mL (≈ 114 µM) | – | – | 62.3 μm | 1085.0 μm | 1331.0 μm | 795.2 μm | 35.9 µg/mL (≈ 118 µM) | solubility at 2 h ([1]; simulated gastric fluid (SGF), simulated gastric fluid, thermodynamic from solid, equilibrium 2 hr): 75.2 µg/mL (≈ 246 µM); solubility at 4 h ([1]; simulated gastric fluid (SGF), simulated gastric fluid, thermodynamic from solid, equilibrium 4 hr): 73.6 µg/mL (≈ 241 µM)
CC(C)c1nc2cc(O)ccc2c(=O)n1-c1ccc(C#N)cc1 [Form AL, 4-(7-hydroxy-4-oxo-2-propan-2-ylquinazolin-3-yl) benzonitrile] | better solubility than Form B | 77.4 µg/mL (≈ 253 µM) | 78.8 µg/mL (≈ 258 µM) | 79.5 µg/mL (≈ 260 µM) | – | – | – | – | – | regular particles | relatively good property on powder flow | – | – | – | – | – | –
